In patent publication US5081122A, “Antiglaucoma compositions containing 4-arylcarbonyl-1-(4-morpholinyl)-lower-alkyl)-1H-indoles and method of use thereof” (Sterling Drug Inc., priority 1990, dated 1992):
Counter-ions that a name gives are not always drawn.

Columns and labels:
[1] = tested on: intraocular pressure; conditions: topical application or systemic injection; literature; cited from earlier work
[2] = target: T1, cannabinoid receptor binding sites (CP 55940 binding sites) (Rattus norvegicus, UniProt P20272); conditions: result in words, literature (Devane et al.), radio-labelled CP 55940; natural and synthetic cannabinoids; cited from earlier work
T1 construct: from tissue; host or cells: rat brain membranes (inferred from the cited Devane et al. 1988)
T1 sequence (P20272 whole entry): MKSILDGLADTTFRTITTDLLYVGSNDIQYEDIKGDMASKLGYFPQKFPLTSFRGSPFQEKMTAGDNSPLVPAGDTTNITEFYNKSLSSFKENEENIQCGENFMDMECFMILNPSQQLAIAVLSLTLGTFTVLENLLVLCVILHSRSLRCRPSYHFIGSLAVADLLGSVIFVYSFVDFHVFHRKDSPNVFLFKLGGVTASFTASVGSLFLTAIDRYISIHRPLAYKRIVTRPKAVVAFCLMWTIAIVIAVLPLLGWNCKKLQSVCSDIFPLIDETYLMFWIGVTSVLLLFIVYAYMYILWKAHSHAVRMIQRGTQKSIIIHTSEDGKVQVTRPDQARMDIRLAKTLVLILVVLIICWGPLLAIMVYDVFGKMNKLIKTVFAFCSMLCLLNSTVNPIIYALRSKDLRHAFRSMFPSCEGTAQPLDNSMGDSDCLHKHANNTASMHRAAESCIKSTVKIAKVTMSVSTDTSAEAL

[3] = target: T1, cannabinoid receptor binding sites (CP 55940 binding sites); test: CP 55940 binding assay (given "CP 55490 [sic] binding assay" in the source)
Description: (§1) Med. Assoc. 217, 1392 (1971)]. […] Opth. 7, 921-923 (1975); Green and Pederson, Effect of delta-9 Tetrahydrocannabinol on Aqueous Dynamics and Ciliary Body Permeability in the Rabbit Eye., Exptl. Eye Research 15, 499-507 (1973); Colasanti, Craig and Allara, Intraocular Pressure, Ocular Toxicity and Neurotoxicity after Administration of Cannabinol or Cannabigerol, Exptl. Eye Research 39, 252-259 (1984)]. Similarly, synthetic cannabinoids also reduce intraocular pressure [Green, Symunds, Oliver and Elijah, Intraocular Pressure Following Systemic Administration of Cannabinoids., Curr. Eye Research 2, 247-253 (1982); Tiedeman, Shields, Weber, Crow, Coccetto, Harris and Howes, Ophthalmology, 88, 270-277 (1981); Colasanti et al., supra]. […] 34, 605-613 (1988)]. Natural and synthetic cannabinoids and representative examples of the compounds of the present invention, bind to CP 55940 binding sites. […] It is believed that agonist activity at the cannabinoid receptor mediates the anti-glaucoma actions of cannabinoids, and that agonist activity at this receptor correlates with ocular pressure lowering actions in man.
The 3-R3 -4-arylcarbonyl-1-[(4-morpholinyl)-lower-alkyl]-1H-indoles of formula I were tested in the mouse vas deferens test and the CP 55490 binding assay. […]

[4] = target: T2, cannabinoid receptor (Mus musculus, UniProt P47746); test: mouse vas deferens (MVD) test, inhibition of contractions in vitro; format: cell-based; conditions: considered active at IC50 of 5.0 μM or less, read-out: MVD IC50 (inhibitory concentration which produces 50% of the maximum response)
T2 construct: mouse vasa deferentia (MVD) preparation in vitro; from tissue; host or cells: mouse vas deferens
T2 sequence (P47746 whole entry): as the sequence (P20272 whole entry) above, with E95D counted along it
Description: as §1
The 3-R3 -4-arylcarbonyl-1-[(4-morpholinyl)-lower-alkyl]-1H-indoles of formula I were tested in the mouse vas deferens test and the CP 55490 binding assay. The results, expressed as the IC50 in μM (the inhibitory concentration which produces 50% of the maximum response), are given in the following table, the compounds being identified by the example number above where their preparations are described.

| Compound | IC50 [4] [nM] | also measured |
| --- | --- | --- |
| CCCCCc1cc(O)c2c(c1)OC(C)(C)C1CCC(C)=CC21 (single isomer, unassigned) [delta-9 tetrahydrocannabinol] |  | intraocular pressure [1]: reduces intraocular pressure |
| CCCCCCC(C)(C)c1ccc([C@@H]2C[C@H](O)CC[C@H]2CCCO)c(O)c1 [CP 55940, 4-(1,1-dimethylheptyl)-2,3'-dihydroxy-6'alpha-(3-hydroxypropyl)-1',2',3',4',5',6'-hexahydrobiphenyl] |  | binding to CP 55940 binding sites / cannabinoid receptor [2]: binds in a specific and saturable manner |
| COc1ccc(C(=O)c2cccc3c2ccn3CCN2CCOCC2)cc1 [Example 1A, 4-(4-methoxybenzoyl)-1-[2-(4-morpholinyl)ethyl]-1H-indole hydrochloride] | 76 | IC50 [3]: 444 nM |
| COc1ccc(C(=O)c2cccc3c2ccn3CCCN2CCOCC2)cc1 [Example 1B, 4-(4-methoxybenzoyl)-1-[3-(4-morpholinyl)propyl]-1H-indole hydrochloride] | 33 |  |
| O=C(c1cccc2ccccc12)c1cccc2c1ccn2CCN1CCOCC1 [Example 1C, 1-[2-(4-morpholinyl)ethyl]-4-(1-naphthylcarbonyl)-1H-indole p-toluenesulfonate hydrate 3:1] | 3 |  |
| O=C(c1ccc2ccccc2c1)c1cccc2c1ccn2CCN1CCOCC1 [Example 1D, 4-(2-naphthylcarbonyl)-1-[2-(4-morpholinyl)ethyl]-1H-indolehydrochloride] | 163 | IC50 [3]: 363 nM |
| COc1ccc(C(=O)c2cccc3c2c(C)cn3CCN2CCOCC2)cc1 [Example 1E, 4-(4-methoxybenzoyl)-3-methyl-1-[2-(4-morpholinyl)ethyl)-1H-indole hydrochloride] | 5000 |  |
